≈ marks a conversion by molar mass, not a printed value.
How the values were obtained:
physchem = settings: 22.8 °C, pH 7.4, aqueous buffer, kinetic from dmso stock
Experimental: Kinetic Solubility at pH 7.4
The final DMSO Concentration was 1.0% and maximum theoretical compound concentration is 100 μM. The filter plate was sealed. […] The collection plate was sealed for analysis.
Filtrates were injected into the nitrogen detector for quantification on Analiza's Automated Discovery Workstation. The results are reported in μg/ml.
The filtrates were quantified with respect to this calibration curve. The calculated solubility values were corrected for background nitrogen present in the DMSO, and the media used to prepare the samples.
The 1×PBS buffer (pH 7.4) was prepared by adding 50 mL of phosphate buffered saline solution 10×, PBS (Fisher Bioreagent part number BP399-500) to approximately 450 mL HPLC grade H2O. The volume of the solution was then adjusted to 500 mL for a total dilution factor of 1:10 and a final PBS concentration of 1×. The pH of the final solution was measured and found to be 7.4.
Each compound tested was analyzed as a trifluoroacetate salt.

TLR8 = TLR8 (Homo sapiens (Human), UniProt Q9NR97); experiment: TLR8 human peripheral blood mononuclear cell (PBMC) cell-based assay (Compound A as agonist; TNFα and IL12p40 readout); settings: human PBMCs, TLR8 agonist Compound A at 800 nM, 6 hours, antagonist potency; read-out: TLR-8 EC50
TLR7 = TLR7 (Homo sapiens (Human), UniProt Q9NYK1); experiment: TLR7 human peripheral blood mononuclear cell (PBMC) cell-based assay (GS-986 as agonist; IL-6 and IFNα readout); settings: human PBMCs, TLR7 agonist GS-986 at 400 nM, 6 hours, antagonist potency; read-out: TLR-7 EC50
Sequence of TLR7 (Q9NYK1 27-1049): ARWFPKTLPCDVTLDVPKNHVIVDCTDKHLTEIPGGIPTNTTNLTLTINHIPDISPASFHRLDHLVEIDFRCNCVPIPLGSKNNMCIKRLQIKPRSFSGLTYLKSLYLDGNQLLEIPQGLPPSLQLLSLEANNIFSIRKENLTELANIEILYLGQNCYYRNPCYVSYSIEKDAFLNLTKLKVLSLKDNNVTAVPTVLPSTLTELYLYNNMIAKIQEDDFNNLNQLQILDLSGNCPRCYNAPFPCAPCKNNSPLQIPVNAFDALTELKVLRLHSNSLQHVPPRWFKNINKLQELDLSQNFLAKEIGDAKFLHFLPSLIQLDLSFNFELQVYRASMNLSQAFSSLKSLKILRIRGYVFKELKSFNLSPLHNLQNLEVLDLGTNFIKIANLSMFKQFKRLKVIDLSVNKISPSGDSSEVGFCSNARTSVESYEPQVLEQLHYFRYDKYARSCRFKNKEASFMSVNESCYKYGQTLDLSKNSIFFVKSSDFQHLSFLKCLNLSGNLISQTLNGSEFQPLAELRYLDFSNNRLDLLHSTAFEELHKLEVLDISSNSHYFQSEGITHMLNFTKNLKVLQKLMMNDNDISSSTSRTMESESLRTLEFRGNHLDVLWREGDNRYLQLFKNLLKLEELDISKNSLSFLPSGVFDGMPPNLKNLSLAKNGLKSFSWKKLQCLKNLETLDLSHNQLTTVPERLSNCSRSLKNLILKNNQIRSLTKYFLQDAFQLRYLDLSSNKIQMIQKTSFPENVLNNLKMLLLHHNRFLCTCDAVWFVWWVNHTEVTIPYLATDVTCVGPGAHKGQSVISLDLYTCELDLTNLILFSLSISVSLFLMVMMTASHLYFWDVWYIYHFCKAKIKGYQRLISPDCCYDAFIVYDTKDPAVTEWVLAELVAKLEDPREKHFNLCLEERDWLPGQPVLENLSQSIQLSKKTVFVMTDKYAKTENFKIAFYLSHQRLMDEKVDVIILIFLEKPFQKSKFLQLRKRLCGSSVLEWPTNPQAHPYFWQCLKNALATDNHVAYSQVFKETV
Summary of the method: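 IL-6 and IFNα released into supernatant were quantified by electrochemiluminescence immunoassay. Before that, human PBMCs at 100,000 per well received a 10-point antagonist titration for 1 h, then TLR7 agonist for 6 more hours, all at 37 °C, 5% CO2.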

[1] = test system: cryopreserved hepatocytes; settings: human, 1 μM
Experimental: Each tested compound was incubated in suspensions of cryopreserved hepatocytes at a final concentration of 1 μM. Vials containing cryopreserved hepatocytes were removed from liquid nitrogen and immediately immersed in a 37° C. water bath. The vials were swirled gently until the contents had thawed. They were then immediately emptied into 48 mL of pre-warmed HT medium in a 50 mL conical tube. Cells remaining in the vial were resuspended with 1.0 mL of pre-warmed HT medium and added to the conical tube. The tube was capped and then gently inverted several times to re-suspend the hepatocytes. The cell suspension was centrifuged at 500×g for 10 minutes at room temperature and the supernatant discarded. The cell pellet was loosened by gently swirling the centrifuge tube. Non-supplemented KHB medium was added to obtain the appropriate target cell density.
For incubations, aliquots of hepatocyte suspension (250 mL at a concentration of 2×10^6 cells/mL) were added to 250 mL of 2 mM of each tested compound in KHB, in duplicate wells in a 24-well plate. Final concentration in the incubations were 1×10^6 cells/mL and 1 mM of each tested compound. […] A cell-free control was also tested in parallel with the incubations. The incubations were carried out with gentle shaking in a 37° C. incubator under a humid atmosphere of 95% air/5% CO2 (v/v). Aliquots (100 mL) were removed after 0, 1, 3, and 6 hours and added to 200 mL IS/Q. The samples were then placed on a shaker for 10 min followed by centrifugation at 3000×g for 20 min. The supernatant was transferred to a new plate and diluted with 100 μL of water to reduce the organic solvent content and then placed on a shaker for 10 mins. Samples were injected and analyzed using LC-MS/MS.

[2] = biological target: MATE2-K (multidrug and toxin extrusion protein 2) (Homo sapiens (Human), UniProt Q86VL8); experiment: MATE2-K IC50 assay (14C-metformin uptake in transfected MDCK-II cells); format: in vitro ADME
Sequence of MATE2-K (multidrug and toxin extrusion protein 2) (Q86VL8 other isoform, or with tags, fused parts or gaps, species assumed): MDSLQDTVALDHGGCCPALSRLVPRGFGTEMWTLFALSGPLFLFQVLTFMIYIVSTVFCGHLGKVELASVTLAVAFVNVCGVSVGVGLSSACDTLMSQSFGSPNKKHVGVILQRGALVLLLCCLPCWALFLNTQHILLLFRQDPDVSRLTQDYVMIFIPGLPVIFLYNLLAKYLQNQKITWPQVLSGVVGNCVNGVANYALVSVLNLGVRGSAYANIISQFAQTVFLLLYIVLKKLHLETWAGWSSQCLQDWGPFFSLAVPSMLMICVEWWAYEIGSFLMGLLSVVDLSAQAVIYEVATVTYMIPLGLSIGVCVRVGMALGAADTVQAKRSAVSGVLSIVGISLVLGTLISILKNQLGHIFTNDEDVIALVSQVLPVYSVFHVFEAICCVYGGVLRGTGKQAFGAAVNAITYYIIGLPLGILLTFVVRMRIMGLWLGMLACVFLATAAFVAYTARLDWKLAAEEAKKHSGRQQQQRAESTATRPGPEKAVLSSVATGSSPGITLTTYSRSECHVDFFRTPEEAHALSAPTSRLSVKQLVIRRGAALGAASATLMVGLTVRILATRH
Experimental: MATE2-K (multidrug and toxin extrusion protein 2) is expressed in the apical membrane in the kidney and mediates the elimination of compounds to urine. MDCK-II cells were maintained in DMEM with low glucose and 10% FBS. Cells passages up to 40 were seeded at 60K±10K cells/well on 96-well, transwell membrane plates approximately 24 hours before transfection. Transport assays were carried out approximately 48 hours after transfection. […]. The assay plate was then placed in a 37° C. incubator with orbital shaking at approximately 60 RPM for the pre-incubation time of 15 minutes. […]. The assay plate was incubated at 37° C. with orbital shaking at approximately 60 RPM for the incubation time of 5 minutes. At end of the 5-minute incubation, 15 μL of dosing solution was removed from each well containing the compound being tested and measured using LC/MS/MS for dose recovery assessment. The assay wells were then washed four times with ice cold PBS. 60 μL cell extraction solution was added to each well and the plate was incubated at 37° C. with orbital shaking at approximately 60 RPM for the 15 minutes. After this incubation, 30 μL was removed from each well, added to 200 μL scintillation fluid, and counted on a 1450 Microbeta (Perkin-Elmer) to measure the probe substrate uptake. Inhibition potential of the compound being tested was calculated by dividing the transporter-mediated uptake rate in presence of the compound being tested or the reference inhibitor by the transporter-mediated uptake rate in presence of vehicle control and fitted to a sigmoidal function to determine the IC50 values.

Sequence of TLR8 (Q9NR97 27-1041): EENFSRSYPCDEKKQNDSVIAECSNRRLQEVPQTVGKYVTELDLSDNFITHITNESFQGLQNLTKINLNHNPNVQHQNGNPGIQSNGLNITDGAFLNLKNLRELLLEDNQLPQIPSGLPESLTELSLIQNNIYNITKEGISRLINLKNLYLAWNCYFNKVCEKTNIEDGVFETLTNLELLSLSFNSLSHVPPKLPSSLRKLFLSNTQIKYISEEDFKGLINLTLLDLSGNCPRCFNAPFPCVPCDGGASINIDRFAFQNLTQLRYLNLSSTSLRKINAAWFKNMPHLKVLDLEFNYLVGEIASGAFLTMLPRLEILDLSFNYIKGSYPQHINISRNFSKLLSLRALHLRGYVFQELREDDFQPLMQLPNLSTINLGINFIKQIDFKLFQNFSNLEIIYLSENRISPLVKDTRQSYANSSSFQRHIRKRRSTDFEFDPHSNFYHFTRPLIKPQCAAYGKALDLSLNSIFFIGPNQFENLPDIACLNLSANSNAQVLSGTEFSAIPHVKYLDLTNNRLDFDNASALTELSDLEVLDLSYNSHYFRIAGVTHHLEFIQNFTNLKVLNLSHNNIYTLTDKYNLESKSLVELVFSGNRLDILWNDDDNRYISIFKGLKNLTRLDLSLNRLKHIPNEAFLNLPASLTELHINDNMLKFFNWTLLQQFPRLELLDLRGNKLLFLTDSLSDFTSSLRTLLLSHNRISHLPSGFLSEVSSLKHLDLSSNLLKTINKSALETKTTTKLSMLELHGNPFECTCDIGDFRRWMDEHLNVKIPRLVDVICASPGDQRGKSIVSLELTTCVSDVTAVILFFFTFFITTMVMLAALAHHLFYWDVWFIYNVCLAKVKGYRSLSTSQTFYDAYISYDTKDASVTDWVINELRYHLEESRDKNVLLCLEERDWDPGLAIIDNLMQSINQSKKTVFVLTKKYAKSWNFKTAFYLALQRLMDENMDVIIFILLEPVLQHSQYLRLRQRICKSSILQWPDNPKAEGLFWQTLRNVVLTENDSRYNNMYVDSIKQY

Question: Which results are given for `Cc1c(-c2[nH]c3sc([C@@H]4C[C@H]5CC[C@@H](C4)N5CC(N)=O)c(C)c3c2C(C)C)cn2ncnc2c1C` [Example 91]?
Answer: solubility kinetic at 24 h (physchem): 2.2 µg/mL (≈ 4.48 µM); EC50 (TLR8): 5.41 nM; EC50 (TLR7): 0.09 nM; Predicted Clearance [1]: 4 mL/min/kg; IC50 [2]: 7800 nM

Reference: patent US11661431B2, “Thienopyrrole compounds” (Gilead Sciences, Inc., priority 2021, dated 2023)
